Results from patent US10642156B2, “Resist base material, resist composition and method for forming resist pattern” (Mitsubishi Gas Chemical Company, Inc., priority 2015, dated 2020).

Legend:
[1] = 10% thermal reduction temperature by thermogravimetry (TG); assay type: physicochemical; conditions: nitrogen gas stream, 10° C./min to 500° C.
Experimental: (3) Thermal Reduction Temperature
“EXSTAR 6000 DSC” apparatus manufactured by SII NanoTechnology Inc. was used. About 5 mg of a sample was placed in an unsealed container made of aluminum, and the temperature was raised to 500° C. at a temperature increase rate of 10° C./min in a nitrogen gas (30 mL/min) stream. In this operation, 10% thermal reduction temperature was measured.

[2] = Test on safe solvent solubility of compound; assay type: physicochemical; conditions: 23° C., ultrasound 30 minutes, visually observed; for Safety solvent solubility test CHN: cyclohexanone (CHN); for Safety solvent solubility test PGME: propylene glycol monomethyl ether (PGME); for Safety solvent solubility test PGMEA: propylene glycol monomethyl ether acetate (PGMEA)
Experimental: (1) Test on Safe Solvent Solubility of Compound
The solubility of the compound in cyclohexanone (CHN), propylene glycol monomethyl ether (PGME), and propylene glycol monomethyl ether acetate (PGMEA) was evaluated according to the following standard using the dissolution amount in each solvent. For the measurement of the dissolution amount, the compound was precisely weighed into a test tube at 23° C., and the target solvent was added thereto at a predetermined concentration. Ultrasound was applied for 30 minutes in an ultrasonic cleaning machine. Then, the state of the liquid was visually observed.
Evaluation A: 20% by mass≤dissolution amount
Evaluation B: 10% by mass≤dissolution amount<20.0% by mass
Evaluation C: Dissolution amount<10% by mass

Structure (SMILES)	10% thermal reduction temperature [1]	Safety solvent solubility test CHN [2]	Safety solvent solubility test PGME [2]	Safety solvent solubility test PGMEA [2]
Oc1ccc(C2=CC(C(c3ccc(I)cc3)c3cc(-c4ccc(O)cc4)ccc3O)C(O)C=C2)cc1 (stereo not drawn) [BiF-I-1]	≥ 300 °C	A (Evaluation A: 20% by mass≤dissolution amount)	A (Evaluation A: 20% by mass≤dissolution amount)	A (Evaluation A: 20% by mass≤dissolution amount)
COc1cc(I)cc(C(c2cc(C3C=CC(O)=CC3)ccc2O)C2C=C(C3=CCC(O)C=C3)C=CC2O)c1 (stereo not drawn) [BiF-I-2]	≥ 300 °C	A (Evaluation A: 20% by mass≤dissolution amount)	A (Evaluation A: 20% by mass≤dissolution amount)	A (Evaluation A: 20% by mass≤dissolution amount)
Oc1ccc(-c2ccc(O)c(C(c3cccc(I)c3)c3cc(-c4ccc(O)cc4)ccc3O)c2)cc1 [BiF-I-3]	≥ 300 °C	A (Evaluation A: 20% by mass≤dissolution amount)	A (Evaluation A: 20% by mass≤dissolution amount)	A (Evaluation A: 20% by mass≤dissolution amount)
